The values that follow come from patent US7045343B2, “Sterilization indicator test packs” (3M Innovative Properties Company, priority 1998, dated 2006).

Assay [1] relates to enzyme associated with Bacillus stearothermophilus spores. As to the kind of experiment: Rapid enzyme fluorescence readout of dual rapid readout indicators after prevacuum steam sterilization. Type of assay: biochemical. The following applies: 4-pulse prevacuum steam 121° C. The protocol: (§1) The indicators prepared for the Examples were dual rapid readout indicators that provided both a rapid, enzyme-based efficacy test and a confirmatory spore outgrowth test. Spores coated on the carrier strip 16 served as the source of active enzyme whose activity was measured by the rapid enzyme test. These same spores were then incubated in the spore outgrowth portion of the test.
(§2) Bacillus stearothermophilus, commercially available as ATCC 7953 from American Type Culture Collection, Rockville, Md., was grown overnight (16 hours) at 58° C. in tryptic soy broth. This culture was used to inoculate the surface of agar plates consisting of 8 g/l nutrient broth, 4 g/l yeast extract, 0.1 g/l manganese chloride and 20 g/l agar at pH 7.2. Plates were incubated at 58° C. for 72 hours. Spores were scraped from the plates and suspended in sterile distilled water. The spores were separated from the vegetative debris by centrifuging the suspension at 7000 rpm and 4° C. for 20 minutes. The supernatant was poured off and the spores were resuspended in sterile distilled water. The cleaning procedure was repeated several times. After the final wash, the spores were suspended in sterile distilled water, at a concentration of approximately 1×10^8 spores per milliliter.
(§3) The spores were then treated with the chemicals identified in Tables 1–5. All chemicals tested were obtained from commercial sources. The spores were centrifuged at 6000 rpm for 10 minutes. The supernatant and coating chemical mixtures were heated at 60–80° C. for several minutes and vortexed to get the material into solution. The spores were then mixed into the sterilant-resistant chemical solution. The sterilant-resistant chemical solution was applied to 5×25 mm, 591 A paper strips (Schleicher & Schuell, Inc., Keene, N.H.) by pipetting 10–15 microliters to each strip for a final population of about 1×10^6 spores per strip. The strips were dried 16 hours at 37° C.
(§4) The treated spore strips were placed on the bottom of the outer container 12 of the indicator 10 and a barrier was inserted between the spore strip 16 and the inner container 18, which contained enzyme substrate. A […] ( 11/16 inch) disc of polypropylene blown microfiber material, with a weight of 200 g/m^2, commercially available as “THINSULATE™ 200-B brand Thermal Insulation” from 3M Company, St. Paul, Minn., was used as the barrier. The inner container 18 contained 0.67 ml nutrient medium, consisting of 17 g of a bacteriological peptone and a 0.17 g/l of L-alanine, as well as 0.1 g 4-methylumbelliferyl-alpha-D-glucoside, commercially available from Sigma Chemical Company, St. Louis, Mo., dissolved in 200 microliters of N,N-dimethylformamide, and 0.03 g bromocresol purple pH indicator dye, per liter of water. The pH of the enzyme substrate and nutrient medium solution was adjusted to 7.6 with 0.1N sodium hydroxide.
(§5) Sterilization indicators were made as described above with each of the chemicals and concentrations described in Table 1. Control indicators were made using untreated spores. The indicators were placed in metal instrument trays and exposed at 121° C. in a Getinge Steam Sterilizer (Getinge International, Inc., 1100 Towbin Ave., Lakewood, N.J.) using a 4-pulse prevacuum cycle at 121° C. with a vacuum level of 0.075–0.085 bar and a steam pulse to 1.00 bar for each pulse. Indicators were exposed in the sterilizer for between 7 and 13 minutes. This cycle is depicted in the time-pressure diagram in FIG. 5. After exposure the inner containers containing the enzyme substrate and nutrient medium were crushed and the indicators were incubated at 60° C. The indicators were examined for fluorescence using a 3M™ ATTEST™ Model 190 Rapid Autoreader, commercially available from 3M Company, St. Paul, Minn. Additionally, spore growth, as indicated by a color change from purple to yellow, was determined visually after 168 hours of incubation at 60° C. […]

Assay [2] concerns Bacillus stearothermophilus spores. As to the kind of experiment: Spore outgrowth (color change) of indicators after prevacuum steam sterilization. Type of assay: cell-based. The note with it: 4-pulse prevacuum steam 121° C. The protocol: as §1, §2, §3, §4, §5
The test system of assay [3] is enzyme associated with Bacillus stearothermophilus spores. As to the kind of experiment: Rapid enzyme fluorescence readout of indicators after hydrogen peroxide plasma sterilization. The following applies: 1–3 hours after exposure. Type of assay: biochemical. On the procedure: Sterilization indicators for Examples 6–9 were prepared as described above with the exception that closure member 22 of the sterilization indicator was constructed of TYVEK™ high-density polyethylene fiber material, commercially available from E.I. du Pont de Nemours and Co., Wilmington, Del.
(§6) Sterilization indicators were made as described above with spores that had been coated with each of the chemicals and concentrations listed in Table 6. The indicators were placed in instrument trays and exposed to a hydrogen peroxide plasma sterilization procedure at 45–55° C. in a STERRAD™ 100SI GMP Sterilizer, obtained from Advanced Sterilization Products Co., Irvine, Calif. During the sterilization procedure a vacuum was drawn in the sterilization chamber for 5–6 minutes until the pressure was reduced to 300 mTorr. A 1.8 ml aliquot of an aqueous solution of 58–60% hydrogen peroxide was then injected into the sterilization chamber over a period of about 6 minutes, yielding an empty chamber concentration of […] hydrogen peroxide, and hydrogen peroxide vapor was allowed to diffuse throughout the chamber for 1–22 minutes at 6–10 Torr. A vacuum was then drawn, reducing the pressure to 500 mTorr and removing all detectable hydrogen peroxide vapor from the chamber.
After exposure to the sterilization procedure, the indicators were removed from the sterilizer and the inner containers containing the enzyme substrate and nutrient medium were crushed. The indicators were then incubated at 60° C. and examined for fluorescence every hour for 5 hours using a 3M™ ATTEST™ Model 190 Rapid Autoreader, commercially available from 3M Company, St. Paul, Minn. Additionally, spore growth, as indicated by a color change from purple to yellow, was determined visually after 168 hours of incubation.
The number of growth positive indicators detected after 168 hours of incubation is recorded in Table 6.
as §6, with “7.” for “6.”
as §6, with “8.” for “6.”, “chamber. […]” for “chamber.”

Setting [4] is: Example 4, 50 mg/ml coating, 7–18 min.
Setting [5] is: Example 4, 100 mg/ml coating, 7–18 min.
[6] abbreviates: Example 5, 50 mg/ml coating, 7–13 min.
The mark [7] stands for this setting: Example 5, 100 mg/ml coating, 7–13 min.
Setting [8] is: Example 2, 5 mg/ml coating, 7–13 min.
[9] abbreviates: Example 2, 10 mg/ml coating, 7–13 min.
[10] abbreviates: Example 2, 20 mg/ml coating, 7–13 min.
Where [11] appears, read: Example 2, 40 mg/ml coating, 7–13 min.
[12] abbreviates: Example 2, 80 mg/ml coating, 7–13 min.

Take Decaglyceryl Monolaurate: in assay [1], the “accuracy of sterilization indicators compared to indicators made with untreated spores” value was “improved”. In addition, in assay [1] (setting [4]), the “FLUORESCENCE - PERCENT POSITIVE 1 HR” value is 0%, the “FLUORESCENCE - PERCENT POSITIVE 2 HR” value worked out at 27.3%, the “FLUORESCENCE - PERCENT POSITIVE 3 HR” value came to 72.7% and the “FLUORESCENCE - PERCENT POSITIVE 4 HR” value amounted to 72.7%. In assay [1] (setting [5]), the “FLUORESCENCE - PERCENT POSITIVE 1 HR” value was found to be 87%, the “FLUORESCENCE - PERCENT POSITIVE 2 HR” value came out at 100.0%, the “FLUORESCENCE - PERCENT POSITIVE 3 HR” value is 100.0% and the “FLUORESCENCE - PERCENT POSITIVE 4 HR” value turned out to be 100.0%. The “NO. GROWTH POSITIVE 168 HR” value in assay [2] (setting [4]) amounted to 11. The “NO. GROWTH POSITIVE 168 HR” value in assay [2] (setting [5]) is given as 23.
Consider POE(5) Glyceryl Monooleate, for which, in assay [1] (setting [6]), the “FLUORESCENCE - PERCENT POSITIVE 1 HR” value is recorded as 0%, the “FLUORESCENCE - PERCENT POSITIVE 2 HR” value worked out at 0%, the “FLUORESCENCE - PERCENT POSITIVE 3 HR” value is given as 0% and the “FLUORESCENCE - PERCENT POSITIVE 4 HR” value was 0%. In addition, in assay [1] (setting [7]), the “FLUORESCENCE - PERCENT POSITIVE 1 HR” value turned out to be 0%, the “FLUORESCENCE - PERCENT POSITIVE 2 HR” value was found to be 0%, the “FLUORESCENCE - PERCENT POSITIVE 3 HR” value is listed as 0% and the “FLUORESCENCE - PERCENT POSITIVE 4 HR” value was determined as 0%. Further, the “NO. GROWTH POSITIVE 168 HR” value in assay [2] (setting [6]) turned out to be 2. In addition, in assay [2] (setting [7]), the “NO. GROWTH POSITIVE 168 HR” value was 2.
“polyoxyethylene (5) glyceryl monostearate [POE (5) Glyceryl Monostearate]”: the “accuracy of sterilization indicators compared to indicators made with untreated spores” value in assay [1] is “improved”. Further, in assay [1] (setting [6]), the “FLUORESCENCE - PERCENT POSITIVE 1 HR” value is 0%, the “FLUORESCENCE - PERCENT POSITIVE 2 HR” value came out at 100.0%, the “FLUORESCENCE - PERCENT POSITIVE 3 HR” value was 100.0% and the “FLUORESCENCE - PERCENT POSITIVE 4 HR” value was found to be 100.0%. Also, in assay [1] (setting [7]), the “FLUORESCENCE - PERCENT POSITIVE 1 HR” value is on record as 0%, the “FLUORESCENCE - PERCENT POSITIVE 2 HR” value worked out at 100%, the “FLUORESCENCE - PERCENT POSITIVE 3 HR” value is reported as 100% and the “FLUORESCENCE - PERCENT POSITIVE 4 HR” value is 100%. Besides, the “NO. GROWTH POSITIVE 168 HR” value in assay [2] (setting [6]) stood at 15. Further, in assay [2] (setting [7]), the “NO. GROWTH POSITIVE 168 HR” value is 5.
For the compound Decaglyceryl Diisostearate, the “accuracy of sterilization indicators compared to indicators made with untreated spores” value in assay [1] is given as “improved”. Further, in assay [1] (setting [6]), the “FLUORESCENCE - PERCENT POSITIVE 1 HR” value turned out to be 30%, the “FLUORESCENCE - PERCENT POSITIVE 2 HR” value was determined as 80.0%, the “FLUORESCENCE - PERCENT POSITIVE 3 HR” value was found to be 100% and the “FLUORESCENCE - PERCENT POSITIVE 4 HR” value was 100%. For the same compound, in assay [1] (setting [7]), the “FLUORESCENCE - PERCENT POSITIVE 1 HR” value is reported as 28.6%, the “FLUORESCENCE - PERCENT POSITIVE 2 HR” value is listed as 100.0%, the “FLUORESCENCE - PERCENT POSITIVE 3 HR” value amounted to 100% and the “FLUORESCENCE - PERCENT POSITIVE 4 HR” value is 100%. For the same compound, in assay [2] (setting [6]), the “NO. GROWTH POSITIVE 168 HR” value was 10. In addition, the “NO. GROWTH POSITIVE 168 HR” value in assay [2] (setting [7]) came out at 14.
Turning to `OCC(O)COCC(O)COCC(O)COCC(O)COCC(O)COCC(O)CO` (centres unmarked) [Hexaglycerol], in assay [1], the “accuracy of sterilization indicators compared to indicators made with untreated spores” value is listed as “did not improve the accuracy”. Moreover, the “FLUORESCENCE - PERCENT POSITIVE 1 HR” value in assay [1] (setting [8]), in assay [1] (setting [9]), in assay [1] (setting [10]), in assay [1] (setting [11]) and in assay [1] (setting [12]) was 0% each time. The “FLUORESCENCE - PERCENT POSITIVE 2 HR” value in assay [1] (setting [8]), in assay [1] (setting [9]), in assay [1] (setting [10]), in assay [1] (setting [11]) and in assay [1] (setting [12]) was 0% in each case. Also, the “FLUORESCENCE - PERCENT POSITIVE 3 HR” value in assay [1] (setting [8]) came out at 0%; in assay [1] (setting [9]) it was 5.0%; in assay [1] (setting [10]) it was 11.1%; in assay [1] (setting [11]) it was 26.9%; in assay [1] (setting [12]), 37.5%. Moreover, the “FLUORESCENCE - PERCENT POSITIVE 4 HR” value was found to be 9.1% in assay [1] (setting [8]); 15.0% in assay [1] (setting [9]); 38.9% in assay [1] (setting [10]); 46.2% in assay [1] (setting [11]); 58.3% in assay [1] (setting [12]). Moreover, the “FLUORESCENCE - PERCENT POSITIVE 5 HR” value was found to be 45.5% in assay [1] (setting [8]); 35.0% in assay [1] (setting [9]); 50.0% in assay [1] (setting [10]); 53.8% in assay [1] (setting [11]); 70.8% in assay [1] (setting [12]). In addition, the “FLUORESCENCE - PERCENT POSITIVE 6 HR” value came out at 63.6% in assay [1] (setting [8]); 50.0% in assay [1] (setting [9]); 61.1% in assay [1] (setting [10]); 61.5% in assay [1] (setting [11]); 70.8% in assay [1] (setting [12]). Also, the “NO. GROWTH POSITIVE 168 HR” value in assay [2] (setting [8]) is reported as 11; in assay [2] (setting [9]), 20; in assay [2] (setting [10]) it was 18; in assay [2] (setting [11]), 26; in assay [2] (setting [12]), 24.
As for `O=CC(=O)C=O` [1,2,3-Propantrial], the “accuracy of sterilization indicators compared to indicators made with untreated spores” value in assay [3] was “improved”.
